Test results as given in patent US6890950B2, “Lapachone delivery systems, compositions and uses related thereto” (priority 2002, dated 2005).
Where “and” joins values, the source holds several entries; their conditions need not be identical. Equal values may be shown once. Values belong to the molecule of their own block, whether it stands above or below them.

Tests used:
LNCaP = experiment: TUNEL apoptosis assay; assay type: cell-based, human; conditions: 10 μM, 4h
DU-145 = experiment: TUNEL apoptosis assay; assay type: cell-based, human; conditions: 10 μM, 4h, TUNEL 48h
PC-3 = experiment: TUNEL apoptosis assay; assay type: cell-based, human; conditions: 10 μM, 4h, TUNEL 48h
A549 NSCLC cells = experiment: survival and apoptosis (PARP cleavage) of NSCLC cells; assay type: cell-based, human; conditions: 50 μM, 4 h
Description: NQO1-dependent apoptosis of A549 or CC-10 NSCLC cells by β-lap.

[1] = system: NQO1-containing LNCaP clones; experiment: colony forming ability assays; assay type: cell-based, human; conditions: 4-h pulses
Description: FIG. 14. […] Colony forming ability assays (CFAs) were performed three times, each in triplicate.
LNCaP cells were transfected with either pcDNA3 empty vector or pcDNA3 containing full-length NQO1 cDNA.

[2] = association constant (Kc) from phase solubility diagrams; assay type: physicochemical; conditions: for association constant Kc (phase solubility): inclusion complex with β-lap, PBS, 25° C., 1:1
Description: Solubility studies were performed by adding excess amount of β-lap to a series of PBS buffer that contain different concentrations of each CD molecule ranging from zero to its solubility limit (see Table 1 for the solubility limit of each CD molecule). A schematic diagram of the intermolecular interactions and their effect on solubility is provided as FIG. 1. The suspensions were stirred at 25° C. until dissolution equilibrium was reached. Then aliquots were withdrawn, filtered (Nylon syringe filter 0.2 μm pore size from Fisher Scientific (Pittsburg, Pa.)) and analyzed for β-lap concentrations by UV-V is spectrophotometry (λmax=257.2 nm, ε=109.6 ml/(mg·cm)). Phase solubility diagram for each CD was obtained by plotting the β-lap solubility at dissolution equilibrium as a function of the CD concentration. The association constant (Kc) [formula] for the complex formation was calculated based on Equation 1 assuming a 1:1 ratio of complex formation (T. Higuchi and K. A. Connors. Adv Anal Chem Instrum. 4:117-212 (1965)). ^1H NMR Study of CD.β-lap Inclusion Complexes

[3] = phase solubility studies of β-lap with cyclodextrins; assay type: physicochemical
Description: Solubility studies were performed by adding excess amount of β-lap to a series of PBS buffer that contain different concentrations of each CD molecule ranging from zero to its solubility limit (see Table 1 for the solubility limit of each CD molecule). A schematic diagram of the intermolecular interactions and their effect on solubility is provided as FIG. 1. The suspensions were stirred at 25° C. until dissolution equilibrium was reached. […] Phase solubility diagram for each CD was obtained by plotting the β-lap solubility at dissolution equilibrium as a function of the CD concentration.

Molecule: CC[C@@]1(O)C(=O)OCc2c1cc1n(c2=O)Cc2cc3ccccc3nc2-1 [Camptothecin, camptothecin]
- Apoptosis (%) After Drug Treatment (LNCaP; LNCaP + DC (50 μM dicoumarol), TUNEL 48h): 33 ± 9%
- Apoptosis (%) After Drug Treatment (LNCaP; LNCaP + DVED, TUNEL 48h): 10 ± 3%
- Apoptosis (%) After Drug Treatment (LNCaP; LNCaP, TUNEL 48h post-treatment): 30 ± 5%
- Apoptosis (%) After Drug Treatment (DU-145; DU-145 + DC (50 μM dicoumarol)): 43 ± 12%
- Apoptosis (%) After Drug Treatment (DU-145; DU-145 + DVED): 10 ± 5%
- Apoptosis (%) After Drug Treatment (DU-145; DU-145): 30 ± 06%
- Apoptosis (%) After Drug Treatment (PC-3; PC-3 + DC (50 μM dicoumarol)): 22 ± 7%
- Apoptosis (%) After Drug Treatment (PC-3; PC-3 + DVED): 6 ± 5%
- Apoptosis (%) After Drug Treatment (PC-3; PC-3): 23 ± 3%

Molecule: O=c1oc2ccccc2c(O)c1Cc1c(O)c2ccccc2oc1=O [dicoumarol]
- effect on cell growth (survival), alone (A549 NSCLC cells): no effect

Molecule: CC1=CC(=O)c2ccccc2C1=O [menadione]
- sensitivity compared to NQO1-deficient LN-pcDNA3 vector alone cells [1]: resistant

Molecule: OC[C@H]1O[C@@H]2O[C@H]3[C@H](O)[C@@H](O)[C@@H](O[C@H]4[C@H](O)[C@@H](O)[C@@H](O[C@H]5[C@H](O)[C@@H](O)[C@@H](O[C@H]6[C@H](O)[C@@H](O)[C@@H](O[C@H]7[C@H](O)[C@@H](O)[C@@H](O[C@H]1[C@H](O)[C@H]2O)O[C@@H]7CO)O[C@@H]6CO)O[C@@H]5CO)O[C@@H]4CO)O[C@@H]3CO [α-CD]
- association constant Kc (phase solubility) [2]: 20.0 ± 0.7 M⁻¹ and 20 M⁻¹

- Kc increase over α-CD (factor) [2]: 8
- association constant Kc (phase solubility) [2]: 160 ± 5 M⁻¹ and 160 M⁻¹
Molecule: OC[C@H]1O[C@@H]2O[C@H]3[C@H](O)[C@@H](O)[C@@H](O[C@H]4[C@H](O)[C@@H](O)[C@@H](O[C@H]5[C@H](O)[C@@H](O)[C@@H](O[C@H]6[C@H](O)[C@@H](O)[C@@H](O[C@H]7[C@H](O)[C@@H](O)[C@@H](O[C@H]8[C@H](O)[C@@H](O)[C@@H](O[C@H]9[C@H](O)[C@@H](O)[C@@H](O[C@H]1[C@H](O)[C@H]2O)O[C@@H]9CO)O[C@@H]8CO)O[C@@H]7CO)O[C@@H]6CO)O[C@@H]5CO)O[C@@H]4CO)O[C@@H]3CO [γ-CD]

- solubility (limit) of HPβ-CD [3]: 360 mM
Molecule: hydroxypropyl β-cyclodextrin [HPβ-CD]
